The values below come from DBAASP.

Common to all, as to assay: ≥ marks a high value that may be exact or a test limit, other limits are often not marked, values filed in µg/mL are converted to µM
The test system of assay [1] is Candida albicans KCTC 7270.
Assay [2] has as its system Escherichia coli CCARM 1229.
Assay [3] has as its system Escherichia coli CCARM 1238.
The subject of assay [4] is Pseudomonas aeruginosa 4007.
In assay [5] the test system is Pseudomonas aeruginosa 4891.
Assay [6] deals with Staphylococcus aureus CCARM 3090.
Assay [7] relates to Staphylococcus aureus CCARM 3518.
Assay [8] concerns Trichosporon beigelii KCTC 7707.
The test system of assay [9] is Acinetobacter baumannii ATCC 19606.
The test system of assay [10] is Acinetobacter baumannii.
In assay [11] the test system is Bacillus subtilis ATCC 6051.
Assay [12] relates to Candida albicans ATCC 90028.
In assay [13] the test system is Cryptococcus neoformans ATCC 208821.
The test system of assay [14] is Escherichia coli ATCC 25922.
Assay [15] concerns Klebsiella pneumoniae ATCC 13883.
Assay [16] relates to Klebsiella pneumoniae ATCC 700603.
In assay [17] the test system is Klebsiella pneumoniae ATCC BAA-2146.
The test system of assay [18] is Klebsiella pneumoniae.
Assay [19] relates to Pseudomonas aeruginosa ATCC 27853.
Assay [20] relates to Pseudomonas aeruginosa.
In assay [21] the test system is Staphylococcus aureus ATCC 43300.
In assay [22] the test system is Bacillus subtilis KCTC 3068.
Assay [23] relates to Enterococcus faecalis ATCC 51575.
Assay [24] concerns Enterococcus faecalis KCCM 29212.
In assay [25] the test system is Enterococcus faecium ATCC 51559.
Assay [26] relates to Enterococcus faecium KCCM 12118.
Assay [27] relates to Escherichia coli KCTC 1682.
Assay [28] relates to Pseudomonas aeruginosa KCTC 1637.
Assay [29] has as its system Salmonella typhimurium KCTC 1926.
Assay [30] concerns Staphylococcus aureus KCCM 40510.
Assay [31] relates to Staphylococcus aureus KCTC 1621.
The subject of assay [32] is Staphylococcus epidermidis KCTC 1917.
In assay [33] the test system is Aeromonas hydrophila TISTR 1321.
Assay [34] concerns Bacillus cereus TISTR 1449.
Assay [35] concerns Bacillus megaterium TISTR 067.
Assay [36] has as its system Bacillus subtilis TISTR 1248.
Assay [37] relates to Candida albicans TISTR 5554.
Assay [38] deals with Edwardsiella tarda DMST 38217.
The test system of assay [39] is Enterococcus faecalis TISTR 927.
Assay [40] has as its system Escherichia coli DH5alpha.
Assay [41] has as its system Pseudomonas aeruginosa TISTR 1287.
The test system of assay [42] is Salmonella enterica subsp. enterica serovar Derby DMST 16881.
The subject of assay [43] is Salmonella typhimurium TISTR 1472.
For assay [44], the system named is Staphylococcus aureus ATCC 25923.
Assay [45] deals with Staphylococcus aureus TISTR 746.
For assay [46], the system named is Bacillus megaterium Bm11.
The test system of assay [47] is Enterobacter cloacae ATCC 49141.
Assay [48] concerns Enterococcus faecalis ATCC 19433.
Assay [49] deals with Klebsiella aerogenes ATCC 35029.
Assay [50] relates to Staphylococcus aureus ATCC 6538P.
Assay [51] deals with Streptococcus pyogenes ATCC 49399.

In brackets after ≈: the same amount, converted by molar mass.

Broadly, the MIC is the smallest concentration in the dilution series that meets the test's criterion for growth inhibition. A lower MIC goes with greater potency. Take `CC[C@H](C)[C@H](NC(=O)[C@H](C)NC(=O)[C@H](CCC(=O)O)NC(=O)[C@H](Cc1cnc[nH]1)NC(=O)[C@@H](NC(=O)[C@H](CCCCN)NC(=O)[C@H](CCC(N)=O)NC(=O)[C@H](Cc1ccccc1)NC(=O)[C@@H](NC(=O)[C@H](CCCCN)NC(=O)[C@H](CCCCN)NC(=O)[C@H](CC(C)C)NC(=O)[C@H](C)NC(=O)[C@H](CC(N)=O)NC(=O)[C@H](CC(C)C)NC(=O)CN)C(C)C)[C@@H](C)CC)C(=O)N[C@@H](CCCCN)C(=O)N[C@@H](CCCCN)C(=O)N[C@H](C(=O)N[C@@H](CC(N)=O)C(=O)N[C@@H](CC(N)=O)C(=O)N[C@@H](Cc1cnc[nH]1)C(=O)N[C@H](C(=O)N[C@@H](CCC(N)=O)C(N)=O)C(C)C)[C@@H](C)CC` [GLNALKKVFQKIHEAIKKINNHVQ]: the MIC in assay [1] is at least 32 µM; in assay [2] it was 4 µM (≈ 11.1 µg/mL); in assay [3], 4 µM (≈ 11.1 µg/mL); in assay [4], 2 µM (≈ 5.54 µg/mL); in assay [5] it was 4 µM (≈ 11.1 µg/mL); in [6] it was 8 µM (≈ 22.2 µg/mL). Moreover, the MIC in [7] was 4 µM (≈ 11.1 µg/mL); in [8], at least 32 µM.

Turning to `CC[C@H](C)[C@@H]1NC(=O)CNC(=O)[C@H](CCCN=C(N)N)NC(=O)[C@H](Cc2ccc(O)cc2)NC(=O)[C@H](C)NC(=O)[C@H](C(C)C)NC(=O)[C@H](CCCN=C(N)N)NC(=O)[C@H](Cc2ccccc2)NC(=O)[C@@H](NC(=O)[C@H](Cc2c[nH]c3ccccc23)NC(=O)[C@@H](N)CCCCN)CSSC[C@@H](C(=O)N[C@@H](CCCN=C(N)N)C(=O)O)NC(=O)[C@H](CCCN=C(N)N)NC(=O)[C@H](CCCN=C(N)N)NC(=O)[C@H](Cc2ccc(O)cc2)NC(=O)[C@H](C)NC1=O` [KWCFRVAYRGIAYRRCR], the MIC came out at 0.113 µM (≈ 0.25 µg/mL) in assay [9]; 0.113 µM (≈ 0.25 µg/mL) in assay [10]; 0.0567 µM (≈ 0.125 µg/mL) in assay [11]; 3.63 µM (≈ 7.99 µg/mL) in [12]; 0.454 µM (≈ 0.999 µg/mL) in assay [13]; 0.0567 µM (≈ 0.125 µg/mL) in assay [14]. Further, the MIC in assay [15] is 0.113 µM (≈ 0.25 µg/mL); in [16], 0.907 µM (≈ 2 µg/mL); in assay [17] it was 0.454 µM (≈ 0.999 µg/mL); in [18] it was 7.26 µM (≈ 16 µg/mL); in assay [19], 0.454 µM (≈ 0.999 µg/mL); in assay [20] it was 0.907 µM (≈ 2 µg/mL). The same molecule showed a minimal inhibitory concentration (MIC) in assay [21] of 0.907 µM (≈ 2 µg/mL).

For `CC[C@H](C)[C@H](NC(=O)[C@H](CC(C)C)NC(=O)[C@H](CC(C)C)NC(=O)[C@@H](N)CC(C)C)C(=O)N[C@@H](C)C(=O)N[C@@H](CC(C)C)C(=O)N[C@@H](CCCN=C(N)N)C(=O)N[C@@H](CCCCN)C(=O)N[C@@H](CCCCN)C(N)=O` [LLLIALRKK], the MIC in assay [22] stood at 3.75 µM (≈ 4 µg/mL); in [23], 7.49 µM (≈ 7.99 µg/mL); in assay [24], 3.75 µM (≈ 4 µg/mL); in assay [25], 1.87 µM (≈ 2 µg/mL); in [26], 3.75 µM (≈ 4 µg/mL); in [27] it was 3.75 µM (≈ 4 µg/mL). Besides, the MIC in assay [28] worked out at 3.75 µM (≈ 4 µg/mL); in [29], 1.87 µM (≈ 2 µg/mL); in assay [30], 3.75 µM (≈ 4 µg/mL); in assay [31], 3.75 µM (≈ 4 µg/mL); in assay [32], 1.87 µM (≈ 2 µg/mL).

Turning to `CC(C)C[C@H](NC(=O)[C@H](CCCCN)NC(=O)[C@@H](NC(=O)[C@H](CO)NC(=O)[C@H](Cc1ccccc1)NC(=O)[C@H](CC(C)C)NC(=O)[C@H](Cc1c[nH]c2ccccc12)NC(=O)[C@@H](NC(=O)[C@H](CS)NC(=O)[C@H](CC(N)=O)NC(=O)[C@@H](N)CCCN=C(N)N)[C@@H](C)O)[C@@H](C)O)C(=O)N[C@@H](CCCCN)C(=O)N[C@@H](CC(C)C)C(=O)N1CCC[C@H]1C(=O)N[C@@H](C)C(=O)O` [RNCTWLFSTKLKLPA], the MIC is at least 225 µM in assay [33]; at least 225 µM in assay [34]; 7.03 µM (≈ 12.5 µg/mL) in assay [35]; 14.1 µM (≈ 25 µg/mL) in [36]; at least 225 µM in assay [37]; at least 225 µM in [38]. Further, the MIC in assay [39] was at least 56.2 µM; in assay [14], 112 µM (≈ 200 µg/mL); in assay [40], at least 112 µM; in [41], at least 225 µM; in assay [42], at least 225 µM; in assay [43], at least 225 µM. The MIC in assay [44] is 225 µM (≈ 400 µg/mL); in [45], at least 225 µM.

Consider `CC[C@H](C)[C@H](NC(=O)[C@H](Cc1c[nH]c2ccccc12)NC(=O)[C@H](Cc1ccccc1)NC(=O)[C@@H]1CCCN1C(=O)[C@H](CCCN=C(N)N)NC(=O)[C@@H](N)CCCN=C(N)N)C(=O)N[C@H](C(=O)N[C@@H](CCCN=C(N)N)C(=O)N[C@@H](CCCN=C(N)N)C(N)=O)[C@@H](C)CC` [RRPFWIIRR], for which the MIC was 1.25 µM (≈ 1.62 µg/mL) in [46]; at least 80 µM in assay [47]; at least 80 µM in assay [48]; 80 µM (≈ 104 µg/mL) in assay [14]; at least 80 µM in assay [49]; over 80 µM in assay [19]. Also, the results for the MIC in assay [50] and in [51] were at least 80 µM and 10 µM (≈ 13 µg/mL), respectively.
